± gives the standard deviation of the averaged measurements.
Key:
Experiment in all cases: relative cell number vs DMSO control (72 h) (% of DMSO); higher = less growth inhibition (more cells)
Details in all cases: sgRNA knockout: sgNT
[1] = tested on: BT-20
How it was run: (§1)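 Pooled Cas9-engineered breast cancer lines (12 sgRNA perturbations each), induced with 100 ng/mL doxycycline for 6 days, were seeded at 5000 cells per 96-well. Compounds were added at four 10-fold doses (10 nM–10 μM or 1 nM–1 μM) in duplicate for 72 h. Cell numbers were interpolated from sequenced sgRNA and cell-line barcode reads using sample-specific 293T spike-in standard curves. Relative cell number is expressed as percent of the median of DMSO-treated samples.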

[2] = tested on: HCC-38
How it was run: as §1

[3] = tested on: MDA-MB-231
How it was run: as §1

[4] = tested on: SKBR3
How it was run: as §1

[5] = tested on: ZR-75-1
How it was run: as §1

Row | SMILES | relative cell number ([1]; 10 nM) | relative cell number ([1]; 100 nM) | relative cell number ([1]; 1000 nM) | relative cell number ([1]; 10000 nM) | relative cell number ([2]; 10 nM) | relative cell number ([2]; 100 nM) | relative cell number ([2]; 1000 nM) | relative cell number ([2]; 10000 nM) | relative cell number ([3]; 10 nM) | relative cell number ([3]; 100 nM) | relative cell number ([3]; 1000 nM) | relative cell number ([3]; 10000 nM) | relative cell number ([4]; 10 nM) | relative cell number ([4]; 100 nM) | relative cell number ([4]; 1000 nM) | relative cell number ([4]; 10000 nM) | relative cell number ([5]; 10 nM) | relative cell number ([5]; 100 nM) | relative cell number ([5]; 1000 nM) | relative cell number ([5]; 10000 nM) | relative cell number ([1]; 1 nM) | relative cell number ([2]; 1 nM) | relative cell number ([3]; 1 nM) | relative cell number ([4]; 1 nM) | relative cell number ([5]; 1 nM)
1 | CC(=O)Nc1cccc(-n2c(=O)n(C3CC3)c(=O)c3c(Nc4ccc(I)cc4F)n(C)c(=O)c(C)c32)c1 [Trametinib] | 97.3 ± 1.3 | 65.2 ± 12 | 70.5 ± 16 | 82.8 ± 37 | 100 ± 5.3 | 78 ± 5.7 | 79.2 ± 5.8 | 71.3 ± 2.2 | 102 ± 27 | 66.9 ± 6 | 39.9 ± 6 | 20.1 ± 2.6 | 116 ± 3.5 | 72.4 ± 22 | 87 ± 36 | 58.7 ± 19 | 101 ± 9.6 | 51.9 ± 2.8 | 43.3 ± 13 | 40.3 ± 22 |  |  |  |  | 
2 | CN1CCN(CCCN2c3ccccc3Sc3ccc(C(F)(F)F)cc32)CC1 [Trifluoperazine] | 80.3 ± 46 | 90.7 ± 11 | 82.4 ± 4.9 | 78.4 ± 15 | 97.3 ± 7 | 86.1 ± 5.2 | 111 ± 8.7 | 80.4 ± 6.6 | 77.9 ± 18 | 117 ± 43 | 99.2 ± 25 | 77.8 ± 7.4 | 57.9 ± 35 | 79 ± 23 | 80.65 ± 0.72 | 50.3 ± 10 | 77.4 ± 46 | 81.3 ± 30 | 80.7 ± 20 | 37.4 ± 5.8 |  |  |  |  | 
3 | CC(C)[C@]12O[C@H]1[C@@H]1O[C@]13[C@]1(O[C@H]1C[C@H]1C4=C(CC[C@@]13C)C(=O)OC4)[C@@H]2O [Triptolide] | 94.44 ± 0.19 | 39.9 ± 12 | 20.8 ± 7.7 |  | 66 ± 0.14 | 23.4 ± 5.6 | 20.5 ± 2.7 |  | 44 ± 14 | 16.5 ± 7.3 | 13.7 ± 4.4 |  | 54.6 ± 19 | 12.4 ± 9 | 8.93 ± 1.3 |  | 78 ± 18 | 11.3 ± 8.5 | 7.98 ± 1.1 |  | 93.1 ± 20 | 97.9 ± 20 | 86.6 ± 8.6 | 83.4 ± 9 | 71.2 ± 23
4 | CN1CCc2c(c3ccccc3n2Cc2ccc(C(=O)NO)cc2)C1 [TubastatinA] | 98.7 ± 12 | 97.3 ± 11 | 116.9 ± 0.46 | 81.4 ± 33 | 122 ± 20 | 88.7 ± 16 | 114 ± 8.2 | 66 ± 2.6 | 81.3 ± 19 | 95.1 ± 14 | 138 ± 27 | 50.6 ± 17 | 104 ± 5.4 | 59.2 ± 14 | 86.4 ± 15 | 25.7 ± 14 | 80 ± 12 | 74 ± 43 | 93.1 ± 40 | 40.4 ± 1.6 |  |  |  |  | 
5 | Cc1onc(-c2ccccc2)c1-c1ccc(S(N)(=O)=O)cc1 [Valdecoxib] | 101 ± 5.5 | 107 ± 17 | 102 ± 21 | 99.62 ± 0.51 | 111 ± 12 | 91.8 ± 8.2 | 99.8 ± 13 | 98.4 ± 16 | 100 ± 22 | 113 ± 13 | 87.1 ± 4.7 | 82.6 ± 1.5 | 76.8 ± 16 | 86.5 ± 37 | 88.5 ± 38 | 124 ± 34 | 95.3 ± 73 | 76.8 ± 16 | 102 ± 37 | 112 ± 1.4 |  |  |  |  | 
6 | C[C@]1(c2nc3c(C(N)=O)cccc3[nH]2)CCCN1 [Veliparib] | 109 ± 41 | 116 ± 15 | 118 ± 38 | 91.9 ± 25 | 106 ± 11 | 104 ± 4.2 | 107 ± 18 | 89.6 ± 4.9 | 135 ± 51 | 144 ± 30 | 148 ± 33 | 97.2 ± 8.6 | 107 ± 26 | 104 ± 11 | 97.2 ± 27 | 72.7 ± 38 | 88.9 ± 56 | 96.9 ± 12 | 97.1 ± 24 | 51.4 ± 4.1 |  |  |  |  | 
7 | CC[C@]1(O)C[C@H]2CN(CCc3c([nH]c4ccccc34)[C@@](C(=O)OC)(c3cc4c(cc3OC)N(C=O)[C@H]3[C@@](O)(C(=O)OC)[C@H](OC(C)=O)[C@]5(CC)C=CCN6CC[C@]43[C@@H]65)C2)C1 [Vincristine] | 34.7 ± 4.6 | 22.5 ± 6.4 | 28.17 ± 0.087 | 34.5 ± 1.1 | 23.2 ± 4 | 22.5 ± 2.4 | 21.8 ± 2.9 | 21.1 ± 1.5 | 30.7 ± 3.3 | 14.4 ± 2.7 | 9.81 ± 3.5 | 8.55 ± 3.1 | 5.25 ± 0.24 | 3.5 ± 2.5 | 8.88 ± 0.92 | 6.97 ± 4.4 | 36.6 ± 5.9 | 22.3 ± 1.7 | 9.69 ± 0.85 | 17.1 ± 4.5 |  |  |  |  | 
8 | CCC[C@H](NC(=O)/C(C#N)=C/c1cccc(Br)n1)c1ccccc1 [WP1130] | 101 ± 53 | 78.7 ± 6.8 | 100 ± 7 | 8.98 ± 1.4 | 92.9 ± 2.6 | 103 ± 6.8 | 83.8 ± 11 | 6.78 ± 2 | 100 ± 26 | 87.3 ± 10 | 116 ± 47 | 11.7 ± 3.7 | 84 ± 36 | 51.2 ± 6.4 | 111 ± 7.9 | 8.93 ± 1.9 | 96.9 ± 44 | 59.7 ± 4.9 | 92.2 ± 22 | 6.81 ± 2.8 |  |  |  |  | 
9 | COCC[n+]1c2c(n(Cc3cnccn3)c1C)C(=O)c1ccccc1C2=O [YM155] | 41.8 ± 5 | 4.66 ± 1.7 | 5.07 ± 2.5 |  | 20.2 ± 2 | 4.12 ± 0.77 | 5.13 ± 0.38 |  | 27.1 ± 0.85 | 6.58 ± 1.3 | 4.86 ± 1.3 |  | 62.2 ± 7.2 | 6.9 ± 0.62 | 4.71 ± 4.5 |  | 23.9 ± 13 | 6.08 ± 4.9 | 3.11 ± 2.6 |  | 88.6 ± 16 | 54.7 ± 3.2 | 75.1 ± 3.9 | 79.4 ± 20 | 87.2 ± 46
10 | FC(F)c1nc2ccccc2n1-c1nc(N2CCOCC2)nc(N2CCOCC2)n1 [ZSTK474] | 79.2 ± 5 | 99.2 ± 19 | 70.9 ± 21 | 55.4 ± 3 | 90.3 ± 4.3 | 94.3 ± 9.2 | 83.4 ± 7.9 | 56.2 ± 1.8 | 92.9 ± 15 | 89.6 ± 34 | 81.7 ± 4.7 | 76.3 ± 15 | 93.1 ± 1.6 | 85 ± 15 | 60.2 ± 41 | 39.1 ± 6.5 | 85.1 ± 10 | 96.2 ± 4.4 | 53.6 ± 27 | 50 ± 12 |  |  |  |  | 
11 | O=c1ncccn1[C@@H]1O[C@H](CO)[C@@H](O)[C@H]1O [Zebularine] | 96.6 ± 7.1 | 83.6 ± 14 | 88.3 ± 38 | 119 ± 24 | 112 ± 28 | 107 ± 6.2 | 107 ± 1.8 | 115 ± 7.4 | 108 ± 38 | 121 ± 22 | 93.6 ± 0.27 | 72.7 ± 13 | 98.7 ± 28 | 83.6 ± 30 | 83.8 ± 14 | 106 ± 9.4 | 84.7 ± 48 | 66 ± 3.3 | 108 ± 26 | 117 ± 5.5 |  |  |  |  | 

— the supplement of paper PMC7661543
